# How the values were obtained:
# tau peptide R3 [1] = biological target: T1, tau peptide R3 (Homo sapiens, UniProt P10636); assay: ThS assay, heparin-induced R3 aggregation (kinetics and dose-response); format: biochemical; conditions: 80 μM compound, 15 μM R3, 3.8 μM heparin, 37 °C, 3 h
# T1 construct: R3 (^306VQIVYK PVDLSK VTSKCG SLGNIH HKPGGG Q^336) and rabbit anti-tau antibody were purchased from MuJin; purchased MuJin
# Experimental: The inhibition effect of 4GA–2GA on R3 aggregation was explored by thioflavin S (ThS) assay ([24]). In general, the kinetics of R3 aggregation in the absence or the presence of 4GA, 2GA was assessed by measuring the emission intensity of ThS at 500 nm, which reflects the amount of R3 aggregates. As the control experiments, the aggregation kinetics of 4ME and GA were also carried out. While induced by heparin, R3 aggregates rapidly at 37 °C, and the fluorescence of ThS reaches a maximum after an average time of 200 s (Fig. 4A). Based on the aforementioned conditions, the inhibitory ability of our synthetic compounds at three different concentrations (5, 10, and 40 μM) was tested.
# Next, the dose–response inhibitory effects of our synthetic compounds on R3 aggregation were investigated. The detailed experimental operation was descripted in ESI. […] The apparent values of IC50 were calculated according to the dose−response curve.
# Tau peptide R3 was adjusted to a concentration of 15 μM using 50 mM Tris−HCl buffer (pH 7.4), ThS (final concentration of 10 μM), and different amounts of 4GA, 2GA, 4ME, and GA (final concentration of 0, 5, 10, and 40 μM) as the aggregation inhibitor were added in1to the reaction mixture. Aggregation was induced by adding heparin to the solution (final concentration of 3.8 μM); the kinetics of each sample was immediately monitored by a fluorescence spectrophotometer with a 10-mm quartz cell at 440/500 nm (excitation/emission). A circulating water bath was necessary to maintain the temperature at 37 °C.
# Tau peptide R3 was adjusted to a concentration of 15 μM using 50 mM Tris–HCl buffer (pH 7.4). Different amounts of 4GA, 2GA, 4ME, and GA (final concentration of 0, 1, 2, 4, 6, 10, 15, 20, 30, 40, 60, or 80 μM) as the aggregation inhibitors were added into the reaction mixture. Aggregation was induced by adding heparin to the solution (final concentration of 3.8 μM), After 3 h incubation at 37°C, ThS (final concentration of 10 μM) was added, and the fluorescence intensity at 440/500 nm (excitation/emission) was recorded on Hitachi F-7000 with a 10-mm quartz cell. The dose−response inhibitory effects of R3 aggregation were expressed by the aggregation percentage, which was calculated according to the following (Formula 4.3):(4.3) aggregation%=F-F0/Ft-F0×100
# where F0 = fluorescence intensity of R3 monomer, Ft = fluorescence intensity of R3 aggregate, and F = fluorescence intensity of R3 aggregate in the presence of inhibitors. The IC50 values were also calculated according to the dose−response inhibitory effects.
# Tau peptide R3 was adjusted to a concentration of 15 μM using Tris−HCl buffer (pH 7.4), and the synthetic compounds (4GA, 2GA, together with 4ME, GA as the comparison) at different concentrations, as aggregation inhibitor, were added into the reaction mixture separately. Aggregation was induced by heparin, and incubated at 37 °C for 3 h. By introducing fluorescence probe ThS, the dose−response inhibitory effects on R3 aggregation were recorded, according to normalized ThS fluorescence intensity (excitation: 440 nm, emission: 500 nm).
# Figure S14. Inhibitory effects of N-substituted Azacrown on heparin-induced R3 aggregation, exermined by ThS fluorescence: 15 μM R3 and 3.8 μM heparin with cyclen, 1ME, 2ME, 3ME, and 4ME (80 μM) was incubated respectively at 37°C for 3h. 10 μM ThS was added to each of the solution, Spectra of ThS fluorescence were recorded at Ex440 nm.
# tau peptide R3 [2] = biological target: T1, tau peptide R3; assay: ThS assay, Cu2+-promoted heparin-induced R3 aggregation; format: biochemical; conditions: R3 15 μM, Cu2+ 3.8 μM, compound 10 μM, heparin 3.8 μM, 3 h
# Source text: Metal ions, especially Cu^2+, are believed to be highly compatible with cysteine residues of tau peptide as a coordination center ([26]). Accompanied by the formation of intermolecular S–Cu–S bridging coordination bond, or intermolecular disulfide bond, these metal ions have been proven to promote tau aggregation ([27]). After confirming that 4GA and 2GA can effectively remove copper ions through coordination, we further explore their effects on R3 aggregation under the promotion of Cu^2+. […] Heparin was used to initiate the aggregation ([15]). […] As a comparison, the effects of the precursor compounds: 4ME, 3ME, 2ME, and 1ME, on Cu^2+-promoted R3 aggregation were also examined (Fig. S15).
# Figure 5 Kinetic curves and TEM image of R3 aggregation with 4GA or 2GA.A, kinetic curves of the R3 (15 μM) aggregation monitored by ThS fluorescence assay in different conditions. B, ThS fluorescence intensity of R3 (15 μM) incubated for 3 h in different conditions. C, TEM image of R3 fibrils in different conditions. Negatively stained with uranyl acetate. Scale bar represents 200 nm. Final concentrations of R3, Cu^2+, and inhibitors are 15, 3.8, and 10 μM, respectively. All aggregations were initiated by heparin (3.8 μM). 2GA, (4,10-dimethyl-1,4,7,10-tetraazacyclododecane-1,7-diyl)bis((3,4,5-trihydroxyphenyl)methanone); 4GA, (1,4,7,10-tetraazacyclododecane-1,4,7,10-tetrayl)tetrakis((3,4,5-trihydroxyphenyl)methanone); TEM, transmission electron microscopy; ThS, thioflavin S.
# The promotion of Cu^2+ on R3 aggregation was also inspected, similar to the aforementioned operation, unless that 3.8 μM Cu^2+ was also included, and using 50 mM Hepes (pH 7.4) as the buffer solution.
# Fig. S15 ThS fluorescence intensity of R3 (15 µM) incubated for 3 h. Final concentrations of R3, Cu^2+, and compounds are 15, 3.8 and 10 µM, respectively. All aggregations were initiated by heparin (3.8 µM).
# [3] = parameters: method as in PMID 19496588; conditions: cited from earlier work
# tau protein = conditions: cited from earlier work
# tau peptide R3 [4] = biological target: T1, tau peptide R3; parameters: method as in PMID 23442089; conditions: reported earlier; read-out: IC50 on R3 aggregation; cited from earlier work
# T1 sequence (P10636 623-653 limits assumed): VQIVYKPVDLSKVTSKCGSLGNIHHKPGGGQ
compound,measurement,setting,value
"CN1CCNCCN(C)CCN(C)CC1 [3ME, 1,4,7-trimethyl-1,4,7,10-tetraazacyclododecane]",effect on heparin-induced R3 aggregation (ThS fluorescence at 500 nm),tau peptide R3 [1],did not hinder the aggregation of R3 peptides
same,ThS fluorescence intensity of R3 aggregation in the presence of Cu2+,tau peptide R3 [2],only to a level close to the case of R3 aggregation in the absence of Cu^2+
"C1CNCCNCCNCCN1 [cyclen, 1,4,7,10-tetraazacyclododecane]",log KCu-cyclen (thermodynamic stability),[3],24.8
"1,4,7-trimethyl-1,4,7,10-tetraazacyclododecane [2ME]",effect on heparin-induced R3 aggregation (ThS fluorescence at 500 nm),tau peptide R3 [1],did not hinder the aggregation of R3 peptides
same,ThS fluorescence intensity of R3 aggregation in the presence of Cu2+,tau peptide R3 [2],only to a level close to the case of R3 aggregation in the absence of Cu^2+
Nc1nc(=O)c2nc(CNc3ccc(C(=O)N[C@@H](CCC(=O)O)C(=O)O)cc3)cnc2[nH]1 [folic acid],binding ability to tau protein,tau protein,230000 M⁻¹
C=C(C)[C@@H]1CCC(C)=C[C@H]1c1c(O)cc(CCCCC)cc1O [cannabidiol],binding ability to tau protein,tau protein,42100 M⁻¹
tannic acid,IC50,tau peptide R3 [4],3.5 µM
"CN1CCNCCNCCNCC1 [1ME, 1-methyl-1,4,7,10-tetraazacyclododecane]",effect on heparin-induced R3 aggregation (ThS fluorescence at 500 nm),tau peptide R3 [1],did not hinder the aggregation of R3 peptides
same,ThS fluorescence intensity of R3 aggregation in the presence of Cu2+,tau peptide R3 [2],only to a level close to the case of R3 aggregation in the absence of Cu^2+

# From paper PMC12455130, “Multifunctional molecular agent for tau-targeted combinational therapy of Alzheimer’s disease” (The Journal of Biological Chemistry, 2025)
